Values quoted from earlier work, collected in patent US7431914B2, “Contrast agent” (GE Healthcare AS, priority 2003, dated 2008).

Settings: both the drug and the chelate conjugate

excrete through the liver: more than 80%
Structure (SMILES): CCCCc1nc(Cl)c(CO)n1Cc1ccc(-c2ccccc2-c2nn[nH]n2)cc1 [Losartan]
